This is an account of results in US7812053B2, “4-((phenoxyalkyl)thio)-phenoxyacetic acids and analogs” (Janssen Pharmaceuticals NV, priority 2004, dated 2010).

“And” between values parts separate entries of the source, which are not always exact repeats. Equal entries are not always repeated.

In test [1] the target is T1, PPARα ligand binding domain fused to the yeast GAL4 DNA binding domain (Homo sapiens, UniProt Q07869).
T1 construct: expressed in transfected cells; host or cells: HEK293
T1 sequence (Q07869 239-466 limits assumed): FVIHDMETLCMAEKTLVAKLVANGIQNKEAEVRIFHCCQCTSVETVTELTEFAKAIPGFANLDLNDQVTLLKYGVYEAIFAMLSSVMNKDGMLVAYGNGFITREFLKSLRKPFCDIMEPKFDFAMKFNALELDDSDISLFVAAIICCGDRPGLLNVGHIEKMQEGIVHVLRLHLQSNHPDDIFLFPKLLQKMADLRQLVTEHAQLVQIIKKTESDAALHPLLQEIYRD
As to the kind of experiment: Transfection assay for PPAR receptors (GAL4-LBD luciferase reporter), PPAR alpha. The format is cell-based. The conditions noted are these: HEK293 cells, GAL4 (UAS) luciferase reporter, 18-24 hrs. The procedure:
(§1) Transfection Assay Method for PPAR Receptors
(§2) HEK293 cells were grown in DMEM/F12 medium supplemented with 10% FBS and glutamine (Invitrogen) and incubated in a 5% CO2 incubator at 37° C. The cells were co-transfected using DMRIE-C reagent (Invitrogen) in serum free medium (Opti-MEM, Invitrogen) with two mammalian expression plasmids, one containing the DNA sequence coding for the ligand binding domains of either PPARα, γ or δ fused to the yeast GAL4 DNA binding domain and the other containing the promoter sequence of the yeast GAL4 (UAS) fused to the firefly luciferase cDNA reporter. The next day, the medium was changed to DMEM/F12 medium supplemented with 5% charcoal treated serum (Hyclone) and glutamine. After 6 hrs the cells were trypsinized and seeded at a density of 50,000 cells/well into 96 well plates and incubated overnight as above. The cells were then treated with test compounds or vehicle and incubated for 18-24 hrs as above. Luciferase reporter activity was measured using the Steady-Glo Luciferase Assay Kit from Promega. DMRIE-C Reagent was purchased from GIBCO Cat. No. 10459-014. OPTI-MEM I Reduced Serum Medium was purchased from GIBCO (Cat. No. 31985). Steady-Glo Luciferase Assay Kit was purchased from Promega (Part# E254B).
(§3) A variety of example compounds have been made and tested, with a range of in vitro results. Below are representative compounds and data; in some cases, where multiple EC50's are shown, multiple measurements were taken. Naturally, different compounds in Formula (I) may have not have activities identical to any one compound below.

In test [2] the target is T2, PPARδ ligand binding domain fused to the yeast GAL4 DNA binding domain (Homo sapiens, UniProt Q03181).
T2 construct: expressed in transfected cells; host or cells: HEK293
T2 sequence (Q03181 211-439 limits assumed): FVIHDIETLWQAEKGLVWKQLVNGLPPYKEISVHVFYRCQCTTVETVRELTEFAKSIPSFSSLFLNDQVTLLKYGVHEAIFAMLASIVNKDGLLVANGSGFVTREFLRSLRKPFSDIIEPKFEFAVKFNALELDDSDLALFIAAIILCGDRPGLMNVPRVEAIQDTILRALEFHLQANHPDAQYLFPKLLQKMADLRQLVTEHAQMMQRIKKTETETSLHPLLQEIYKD
Briefly: Transfection assay for PPAR receptors (GAL4-LBD luciferase reporter), PPAR delta. The format is cell-based. The conditions noted are these: HEK293 cells, GAL4 (UAS) luciferase reporter, 18-24 hrs; multiple values = multiple measurements. The protocol:
as §1, §2, §3

The target in test [3] is T3, PPARγ ligand binding domain fused to the yeast GAL4 DNA binding domain (Homo sapiens, UniProt P37231).
T3 construct: expressed in transfected cells; host or cells: HEK293
T3 sequence (P37231 238-503 limits assumed): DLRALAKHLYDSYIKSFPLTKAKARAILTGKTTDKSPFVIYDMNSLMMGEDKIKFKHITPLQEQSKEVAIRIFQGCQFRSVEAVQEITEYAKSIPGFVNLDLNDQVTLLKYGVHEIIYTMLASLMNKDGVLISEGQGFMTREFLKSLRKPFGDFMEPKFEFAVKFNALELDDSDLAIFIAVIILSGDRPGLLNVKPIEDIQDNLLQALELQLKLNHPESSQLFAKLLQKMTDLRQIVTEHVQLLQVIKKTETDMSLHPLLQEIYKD
Briefly: Transfection assay for PPAR receptors (GAL4-LBD luciferase reporter), PPAR gamma. The format is cell-based. The conditions noted are these: HEK293 cells, GAL4 (UAS) luciferase reporter, 18-24 hrs. The protocol:
as §1, §2
A variety of example compounds have been made and tested, with a range of in vitro results. […]

In test [4] the test system is differentiated THP-1 monocytes. The conditions noted are these: cited from earlier work.

As for `CCC(COc1ccc(C(F)(F)F)cc1)CSc1ccc(OC(C)C(=O)O)c(C)c1` (stereo not shown) [Compound 1, 2-{2-Methyl-4-[2-(4-trifluoromethyl-phenoxymethyl)-butylsulfanyl]-phenoxy}-propionic acid], the EC50 in test [1] was 548 nM; in test [2] it was 13.8 nM and 14.9 nM.
On to `CCC(COc1ccc(C(F)(F)F)cc1)CSc1ccc(OC(C)(C)C(=O)O)c(C)c1` (stereo not shown) [Compound 2, 2-Methyl-2-{2-methyl-4-[2-(4-trifluoromethyl-phenoxymethyl)-butylsulfanyl]-phenoxy}-propionic acid], for which the EC50 in test [1] was 237 nM; in test [2], 9.1 nM and 11.1 nM; in test [3], 278 nM.
In the case of `CCOC(COc1ccc(C(F)(F)F)cc1)CSc1ccc(OC(C)(C)C(=O)O)c(C)c1` (stereo not shown) [Compound 3, 2-{4-[2-Ethoxy-3-(4-trifluoromethyl-phenoxy)-propylsulfanyl]-2-methyl-phenoxy}-2-methyl-propionic acid], the EC50 in test [1] was 537 nM; in test [2], 34 nM and 27.5 nM; in test [3], 565 nM.
For the molecule `Cc1cc(SCc2sc(-c3ccc(C(F)(F)F)cc3)nc2C)ccc1OCC(=O)O` [GW501516], in test [4], the “ABCA1 mRNA expression” value is given as “induced ABCA1 mRNA expression” and the cholesterol efflux entry is on record as “enhanced cholesterol efflux”.
